Reference: US8420653B2, “Pyrimidine compounds and their uses” (Orchid Chemicals & Pharmaceuticals Limited, priority 2008, dated 2013)

Key:
[1] = system: purified recombinant COX-1; assay: COX-1 enzyme based assay; assay type: biochemical
Procedure: COX-1 and COX-2 enzyme based assays were carried out to check the inhibitory potential of the test compounds on the production of prostaglandin by purified recombinant COX-1/COX-2 enzyme (Proc. Nat. Acad. Sci. USA, 88, 2692-2696, 1991; J. Clin. Immunoassay 15, 116-120, 1992). In this assay, the potential of the test compound to inhibit the production of prostaglandin either by COX-1 or COX-2 from arachidonic acid (substrate) was measured. This was an enzyme based in-vitro assay to evaluate selective COX inhibition with good reproducibility.
Arachidonic acid was converted to PGH2 (Intermediate product) by COX1/COX-2 in the presence or absence of the test compound. The reaction was carried out at 37° C. and after 2 minutes it was stopped by adding 1M HCl. Intermediate product PGH2 was converted to a stable prostanoid product PGF2α by SnCl2 reduction. The amount of PGF2α produced in the reaction was inversely proportional to the COX inhibitory potential of the test compound. The prostanoid product was quantified via enzyme immunoassay (EIA) using a broadly specific antibody that binds to all the major forms of prostaglandin, using Cayman ELISA kit as per the procedure outlined by the manufacturer (Cayman Chemicals, Ann Arbor, USA).

[2] = system: ulcer formation; assay: Ulcerogenic potential; assay type: in vivo, male wistar; conditions: oral, 4 hours after administration
Procedure: Ulcerogenic Potential In order to evaluate the compound's role on the ulcer formation, the animals were sacrificed and the stomach was taken out and flushed with 1% formalin. Animals (male wistar 200 g) were fasted for 18 hours with free access to water and the test compounds were suspended in 0.5% Tween 80 and 0.25% CMC (carboxymethylcellulose) solution to make a uniform suspension. After 4 hours of oral administration of test compounds, all the animals were sacrificed by cervical dislocation. The stomach was dissected carefully and filled up with a sterile saline solution and embedded in 6% formalin solution. […] The test compound treated groups were compared with the vehicle treated groups. […]

[3] = system: T1, PDE4; assay: PDE4 activity (source human U937 cells); assay type: biochemical; conditions: 10 μM, source human U937 cells
T1 construct: other: 10 μM, source human U937 cells; PDE4 at 10 μm
Procedure: PDE4 inhibition was measured by following a literature assay procedure (Cortizo J et al., Br J. Pharmacol., 1993, 108: 562-568. The assay method involves the following conditions.
Substrate: 1.01 μM [^3H] camp+camp
Pre-Incubation Time/Temperature: 15 minutes at 25° C.
Incubation Time/Temperature. 20 minutes at 25° C.
Incubation buffer: 50 mM Tris-HCl, pH 7.5, 5 mM MgCl2
Quantitation method: Quantitation of [^3H] Adenosine
Significance criteria: ≧50% of max stimulation or inhibition

## CNS(=O)(=O)c1ccc(-c2c(N)nc(C(F)(F)F)nc2-c2ccc(S(C)(=O)=O)cc2)cc1 [Example 2, 4-{4-Amino-6-[4-(methylsulfonyl)phenyl]-2-(trifluoromethyl)pyrimidin-5-yl}-N-methylbenzenesulfonamide]
[1]; 1 μM
  % Inhibition in rEnzyme Assay COX-1: 33.84%
[1]; 10 μM
  % Inhibition in rEnzyme Assay COX-1: 50.41%

## CS(=O)(=O)c1ccc(-c2nc(C(F)(F)F)nc(Cl)c2-c2ccc(S(=O)(=O)Cl)cc2)cc1 [Example 3, 4-{4-chloro-6-[4-(methylsulfonyl)phenyl]-2-(trifluoromethyl)pyrimidin-5-yl}benzenesulfonyl chloride]
other
  melting point: 207 to 210 °C

## CNS(=O)(=O)c1ccc(-c2c(Cl)nc(C(F)(F)F)nc2-c2ccc(S(C)(=O)=O)cc2)cc1 [Example 4, 4-{4-chloro-6-[4-(methylsulfonyl)phenyl]-2-(trifluoromethyl)pyrimidin-5-yl}-N-methylbenzenesulfonamide]
[2]
  Ulcer incidence at 5 mg/kg: Nil
other
  melting point: 226 to 230 °C

## CNc1nc(C(F)(F)F)nc(-c2ccc(S(C)(=O)=O)cc2)c1-c1ccc(S(=O)(=O)NC)cc1 [Example 5, 4-{4-(Methylamino)-6-[4-(methylsulfonyl)phenyl]-2-(trifluoromethyl)pyrimidin-5-yl}-N-methylbenzenesulfonamide]
[2]
  Ulcer incidence at 5 mg/kg: Nil

## CS(=O)(=O)c1ccc(-c2nc(C(F)(F)F)nc(NN)c2-c2ccc(S(=O)(=O)NN)cc2)cc1 [Example 7, 4-{4-hydrazino-6-[4-(methylsulfonyl)phenyl]-2-(trifluoromethyl)pyrimidin-5-yl}benzenesulfonohydrazide]
other
  melting point: 203 to 206 °C

## O=C(NNc1nc(C(F)(F)F)nc(-c2ccncc2)c1-c1ccc(F)cc1)C(F)(F)F [Example 14, 2,2,2-trifluoro-N′-[5-(4-fluorophenyl)-6-pyridin-4-yl-2-(trifluoromethyl)pyrimidin-4-yl]acetohydrazide]
other
  melting point: 240 to 242 °C

## CC(=O)NS(=O)(=O)c1ccc(-c2c(Cl)nc(C(F)(F)F)nc2-c2ccc(S(C)(=O)=O)cc2)cc1 [Example 17, N-[(4-{4-chloro-6-[4-(methylsulfonyl)phenyl]-2-(trifluoromethyl)pyrimidin-5-yl}phenyl)sulfonyl]acetamide]
other
  melting point: 230 to 235 °C

## CS(=O)(=O)c1ccc(-c2nc(C(F)(F)F)nc(OS(=O)(=O)c3cccc4ccccc34)c2-c2ccccc2)cc1 [Example 18, 6-[4-(methylsulfonyl)phenyl]-5-phenyl-2-(trifluoromethyl)pyrimidin-4-yl napthalenesulfonate]
other
  melting point: 204 to 206 °C

## CS(=O)(=O)c1ccc(-c2nc(C(F)(F)F)nc(N3CCN(Cc4ccncc4)CC3)c2-c2ccccc2)cc1 [Example 46, 4-[4-(Methylsulfonyl)phenyl]-5-phenyl-6-[4-(pyridin-4-ylmethyl)piperazin-1-yl]-2-(trifluoromethyl)pyrimidine]
other
  melting point: 228 to 232 °C

## CS(=O)(=O)c1ccc(-c2nc(C(F)(F)F)nc(N3CCN(Cc4ccc([N+](=O)[O-])s4)CC3)c2-c2ccccc2)cc1 [Example 47, 6-[4-(Methylsulfonyl)phenyl]-4-{4-[(5-nitro-2-thienyl)methyl]piperazin-1-yl}-5-phenyl-2-(trifluoromethyl)pyrimidine]
other
  melting point: 168 to 174 °C

## FC(F)(F)c1nc(-c2ccccc2)c(-c2ccccc2)c(N2CCN(c3ccccn3)CC2)n1 [Example 48, 4,5-diphenyl-6-(4-pyridin-2-yl-piperazin-1-yl)-2-(trifluoromethyl)pyrimidine]
other
  melting point: 165 to 167 °C

## CS(=O)(=O)c1ccc(-c2nc(C(F)(F)F)nc(N3CCN(c4ccccn4)CC3)c2-c2ccccc2)cc1 [Example 49, 4-[4-(Methylsulfonyl)phenyl]-5-phenyl-6-(4-pyridin-2-yl-piperazin-1-yl)-2-(trifluoromethyl)pyrimidine]
other
  melting point: 229 to 233 °C

## NS(=O)(=O)c1cccc(-c2c(-c3ccccc3)nc(C(F)(F)F)nc2N2CCNCC2)c1 [Example 51, 3-[4-Phenyl-6-piperazin-1-yl-2-(trifluoromethyl)pyrimidin-5-yl]benzenesulfonamide]
[1]; 1 μM
  % Inhibition in rEnzyme Assay COX-1: 8.27%
[1]; 10 μM
  % Inhibition in rEnzyme Assay COX-1: 7.1%

## NS(=O)(=O)c1cccc(-c2c(-c3ccc(F)cc3)nc(C(F)(F)F)nc2N2CCN(c3ccccn3)CC2)c1 [Example 53, 3-[4-(4-Fluorophenyl)-6-(4-pyridin-2-ylpiperazin-1-yl)-2-(trifluoromethyl)pyrimidin-5-yl]benzenesulfonamide]
[1]; 1 μM
  % Inhibition in rEnzyme Assay COX-1: 46.29%
[1]; 10 μM
  % Inhibition in rEnzyme Assay COX-1: 56.85%

## NS(=O)(=O)c1cccc(-c2c(-c3ccc(F)cc3)nc(C(F)(F)F)nc2N2CCN(c3ncccn3)CC2)c1 [Example 54, 3-[4-(4-Fluorophenyl)-6-(4-pyrimidin-2-ylpiperazin-1-yl)-2-(trifluoromethyl)pyrimidin-5-yl]benzenesulfonamide]
[1]; 1 μM
  % Inhibition in rEnzyme Assay COX-1: 34.42%
[1]; 10 μM
  % Inhibition in rEnzyme Assay COX-1: 45.53%

## NS(=O)(=O)c1cccc(-c2c(-c3ccccc3)nc(C(F)(F)F)nc2N2CCN(c3ncccn3)CC2)c1 [Example 57]
[1]; 10 μM
  % Inhibition in rEnzyme Assay COX-1: 5.7%

## NS(=O)(=O)c1cccc(-c2c(-c3ccccc3)nc(C(F)(F)F)nc2N2CCN(c3ccccn3)CC2)c1 [Example 58]
[1]; 1 μM
  % Inhibition in rEnzyme Assay COX-1: 10.22%
[1]; 10 μM
  % Inhibition in rEnzyme Assay COX-1: 9.59%

## NS(=O)(=O)c1cccc(-c2c(-c3ccc(F)cc3)nc(C(F)(F)F)nc2N2CCN(S(=O)(=O)C(F)(F)F)CC2)c1 [Example 77, 5-(3-Aminosulfonylphenyl)-4-(4-fluorophenyl)-2-(trifluoromethyl)-6-{4-[(trifluoromethyl)sulfonyl]piperazin-1-yl}pyrimidine]
[3]
  PDE4 inhibition at 10 μM (%): 94%

## N#CCCN1CCN(c2nc(C(F)(F)F)nc(-c3ccc(F)cc3)c2-c2cccc(S(N)(=O)=O)c2)CC1 [Example 100, 3-{4-[4-(2-cyanoethyl)piperazin-1-yl]-6-(4-fluorophenyl)-2-(trifluoromethyl)pyrimidin-5-yl}benzenesulfonamide]
[3]
  PDE4 inhibition at 10 μM (%): 92%

## NS(=O)(=O)c1cccc(-c2c(-c3ccc(F)cc3)nc(C(F)(F)F)nc2N2CCN(C(=O)C(F)(F)F)CC2)c1 [Example 109, 3-{6-(4-Fluorophenyl)-4-[4-(trifluoroacetyl)piperazin-1-yl]-2-(trifluoromethyl)pyrimidin-5-yl}benzenesulfonamide]
[3]
  PDE4 inhibition at 10 μM (%): 90%

## NS(=O)(=O)c1cccc(-c2c(-c3ccccc3)nc(C(F)(F)F)nc2N2CCN(c3ccc(C(F)(F)F)cn3)CC2)c1 [Example 116, 3-[6-{4-[5-(trifluoromethyl)pyridin-2-yl]piperazin-1-yl}-4-phenyl-2-(trifluoromethyl)pyrimidin-4-yl]benzenesulfonamide]
[1]; 1 μM
  % Inhibition in rEnzyme Assay COX-1: 6.29%
[1]; 10 μM
  % Inhibition in rEnzyme Assay COX-1: 19.24%

## NS(=O)(=O)c1cccc(-c2nc(C(F)(F)F)nc(-n3ccnc3)c2-c2ccccc2)c1 [Example 167, 3-[4-(1H-imidazol-1-yl)-5-phenyl-2-(trifluoromethyl)pyrimidin-6-yl]benzenesulfonamide]
[3]
  PDE4 inhibition at 10 μM (%): 82%

## NS(=O)(=O)c1cccc(-c2c(-c3ccccc3)nc(C(F)(F)F)nc2N2CCN(C(=O)C(F)(F)F)CC2)c1 [Example 173, 3-{6-Phenyl-4-[4-(trifluoroacetyl)piperazin-1-yl]-2-(trifluoromethyl)pyrimidin-5-yl}benzenesulfonamide]
[3]
  PDE4 inhibition at 10 μM (%): 87%

## Fc1ccc(-c2nc(C(F)(F)F)nc(NC3CC3)c2-c2ccccc2)cc1 [Example 175, N-Cyclopropyl-6-(4-fluorophenyl)-5-phenyl-2-(trifluoromethyl)pyrimidin-4-amine]
[3]
  PDE4 inhibition at 10 μM (%): 88%

## NS(=O)(=O)c1cccc(-c2c(-c3ccccc3)nc(C(F)(F)F)nc2N2CCC(=O)CC2)c1 [Example 179, 3-[6-Phenyl-4-(4-oxopiperidin-1-yl)-2-(trifluoromethyl)pyrimidin-5-yl]benzenesulfonamide]
[3]
  PDE4 inhibition at 10 μM (%): 84%
